Measurements taken from PMC6212553, “Baicalein Enhances the Oral Bioavailability and Hepatoprotective Effects of Silybin Through the Inhibition of Efflux Transporters BCRP and MRP2” (Frontiers in Pharmacology, 2018).
Like-named read-outs stand apart in the source and are kept apart here.

Experiments:
[1] = Pharmacokinetic study in rats after oral administration; assay type: in vivo, SD rats; settings: silybin 50 mg/kg oral; for CL/F / MRT last / Tmax / half-life: male, SD, rat, plasma, po, 50 mg/kg; for CL/F: read-out: CLz/F, free silybin (converted); for MRT last: read-out: MRT(0-t), free silybin; for Tmax: read-out: Tmax, free silybin; for half-life: read-out: t1/2z, free silybin (converted)
Procedure: A previously established liquid chromatography-mass spectrometry (LC-MS) method with slight modifications was used to determine the concentrations of all glucuronide and sulfate conjugates of silybin and free silybin in bio-samples (plasma, cell and media) ([Wen et al., 2008]). In brief, a 10 μl aliquot of each sample was enzymatically hydrolyzed with […] (8000 U/ml) and sulfatase (80 U/ml), and the reaction was terminated by adding 40 μl ice-cold acetonitrile containing glacial acetic acid (1%) and internal standard NG (25 ng/ml). After centrifugation at 13,500 rpm for 15 min at 4°C, the supernatant was dried in ice bath by blowing nitrogen. Later, the residues were reconstituted with 60 μl of 30% methanol in water containing 1% ascorbic acid, and an aliquot of 10 μl of final solution after centrifugation was analyzed by LC-MS/MS. In parallel, a 10 μl aliquot of each sample without enzymes was treated with 40 μl ice-cold acetonitrile containing glacial acetic acid (1%) and NG (25 ng/ml) to determine the concentration of free silybin. Therefore, the concentration of total glucuronides and sulfates was estimated based on the difference between the amount of total silybin (after incubation with both glucuronidase and sulfatase) and free silybin (without enzymatic incubation). The method was validated in terms of specificity, recovery, linearity, sensitivity (LLOQ), matrix effect, accuracy, precision, and stability based on the USA Food and Drug Administration (FDA) bioanalytical method validation guidance. The quantitative linear range for silybin A and B was 5 to 12500 ng/ml.
The analysis for the determination of the concentration of silybin and its glucuronides and sulfates was performed on an Agilent HP 1100 LC-MS system (Agilent, CA, United States) with Waters ACQUITY UPLC® BEH C18 Column (1.7 μm, 2.1 × 50 mm, Waters Corp., Ireland) protected by a C18 Security Guard cartridge (4 × 2.0 mm i.d., Phenomenex, Torrance, CA, United States). Silybin A and B were well separated using optimized gradient elution with 0.1% formic acid in water (mobile phase A) and methanol (mobile phase B) at a flow rate of 0.4 ml/min within 10 min at room temperature (22°C). The gradient elution was performed as follows (time: mobile phase B percentage): 0 min: 25%, 6 min: 40%, 6.5 min: 25%.
Mass spectrometry parameters: capillary voltage, -4000 V; drying gas, 9 L/min; drying gas temperature, 325°C; nebulizer pressure, 40 psi; fragment voltage, 35 V; dwell time, 200 ms; scan mode, selective ion monitoring (SIM) with [M-H]^- for silybin (m/z 481), mono-glucuronide (m/z 657), and NG (m/z 271). The LC-MS data were collected by Agilent ChemStation Software.
Male SD rats, weighting 200–250 g, were purchased from the Guangdong Medical Laboratory Animal Center. They were housed as six rats per cage and in a temperature- (21°C) and humidity-controlled (70%) room with a 12 h light/dark cycle with standard diet and water. All animals were allowed to acclimate to the housing conditions for 7 days prior to experimentation. Experimental procedures were approved by the Committee of Guangdong Provincial Hospital of Traditional Chinese Medicine (No # 2017044).
The SD rats were randomly divided into three groups with six rats per group and were given oral administration as follows: (1) silybin at a dosage of 50 mg/kg bodyweight, (2) silybin and baicalein at a dosage of 50 mg/kg each, and (3) baicalein at a dosage of 50 mg/kg body weight. Before the experiment, rats were pre-fasted for 24 h with water ad libitum and were maintained at a temperature of 21°C with 70% relative humidity and a 12 h light/dark cycle. Blood samples were collected via the tail vein (about 0.1 ml) at time intervals of 0, 15, 30, 45, 60, 90, 120, 240, 360, 480, and 720 min after oral administration with a temporary cannula ([Parasuraman et al., 2010]), and the samples were transferred into heparinized micro-centrifuge tubes. […]

[2] = Bidirectional transport of silybin across Caco-2 cell monolayers; assay type: in vitro ADME, Human; settings: human
Procedure: Human colon epithelial cell line (Caco-2) was purchased from American Type Culture Collection (Manassas, VA, United States) and frozen at -80°C. Wild type MDCK II, MDR1-MDCK II, BCRP-MDCK II, and MRP2-MDCK II cells were kindly supplied by the Netherlands Cancer Institute (Amsterdam, Netherlands). Transport study was carried out with Caco-2 cells, and MDCK II cells were transfected using a previously established method with slight modifications ([Yuan et al., 2017]). The Caco-2 cells were cultured at 37°C/5% CO2 in Dulbecco's modified Eagle's medium (DMEM) supplemented with 10% fetal bovine serum, 1% nonessential amino acids, and 1% penicillin-streptomycin. The Caco-2 cells were seeded onto polyester filter membranes in a 12-well Transwell® plate (Corning Costar Co., NY, United States) with 0.6 × 10^5 cells/cm^2. The monolayer cells were used for transport assays between 21 and 23 days. The MDCKII cells were seeded on transwell plates with a density of 2.0 × 10^5 cells/cm^2 and grown for 4-5 days to form a confluent monolayer. Bidirectional transport assays for Caco-2 and MDCK II cells were performed by adding silybin (10 μM) in assay buffer into either the apical (AP; A-to-B) or basolateral (BL; […] For inhibition studies, Caco-2 or MDCK II cell monolayers in both apical and basolateral chambers were preincubated with the inhibitor for 30 min. The fluorescence intensity of the sample collected from the AP or BL side was immediately detected in a 96-well black plate by the Microplate UV/VIS spectrophotometer (TECAN Infinite […], Männedorf, Switzerland). For liquid chromatography tandem-mass spectrometry (LC-MS/MS) analysis, the sample (100 μl) was mixed with methanol (50 μl) containing internal standard (25 ng/ml) and was stored at -80°C. The formula for calculating apparent permeability coefficient (Papp) values is as follows: (1) […] where dQ/dt (mM/s) represents the rate of permeation of the drug across the cells, C0 (mM) refers to the concentration in the donor compartment at time zero calculated from dosing solution, and A (cm^2) refers to the area of the cell monolayer. Papp (B-A) is the Papp value measured in the B to A direction, and Papp (A-B) is the Papp value measured in the A to B direction. The efflux ratio is given as ER = Papp (B to A)/Papp (A to B).

[3] = with baicalein 50 mg/kg, listed as SBA
[4] = without baicalein, listed as SBA
[5] = Caco-2, silybin 10 μM, co-treatment with baicalein 5 μM, read-out: efflux ratio
[6] = Caco-2 model, silybin alone, read-out: mean efflux ratio
[7] = with baicalein 50 mg/kg, listed as SBB

Row | CL/F ([1]; with baicalein 50 mg/kg) [mL/min/kg] | MRT last ([1]; with baicalein 50 mg/kg) [h] | Tmax ([1]; with baicalein 50 mg/kg) [h] | half-life ([1]; with baicalein 50 mg/kg) [h] | CL/F ([1]; without baicalein) [mL/min/kg] | MRT last ([1]; without baicalein) [h] | Tmax ([1]; without baicalein) [h] | half-life ([1]; without baicalein) [h] | AUC(0-∞), free silybin ([1]; with baicalein 50 mg/kg) [ng ⋅ h/ml] | AUC(0-∞), free silybin ([1]; without baicalein) [ng ⋅ h/ml] | efflux ratio at 180 min, 10 μM [2, 5] | efflux ratio at 180 min, 10 μM [2, 6] | Structure (SMILES) | other results
1 | 233 | 1.9 ± 0.2 | 1.5 | 1.6 ± 2.3 | 417 | 4.1 ± 0.9 | 1.5 | 1.5 ± 0.2 | 3599 ± 410 | 2305 ± 1147 | 2.38 ± 0.27 | 5.62 | COc1cc([C@H]2Oc3cc([C@H]4Oc5cc(O)cc(O)c5C(=O)[C@@H]4O)ccc3O[C@@H]2CO)ccc1O [silybin A] | AUC(0-t), free silybin ([1]; with baicalein 50 mg/kg): 3534 ± 344 ng ⋅ h/ml; Cmax, free silybin ([1]; with baicalein 50 mg/kg): 1526 ± 126 ng/mL; AUC(0-t), free silybin [1, 3]: 3534 ± 344 ng ⋅ h/ml; Cmax, free silybin [1, 3]: 1526 ± 126 ng/mL; AUC(0-t), free silybin [1, 4]: 1292 ± 342 ng ⋅ h/ml; Cmax, free silybin [1, 4]: 507.7 ± 115 ng/mL
2 | 298 | 2.1 ± 0.3 | 1.29 ± 0.51 | 1.34 ± 0.53 | 450 | 4.21 ± 0.98 | 1.5 | 1.7 ± 0.3 | 1812 ± 223 | 2087 ± 932 | 2.33 ± 0.09 | 5.13 | COc1cc([C@@H]2Oc3cc([C@H]4Oc5cc(O)cc(O)c5C(=O)[C@@H]4O)ccc3O[C@H]2CO)ccc1O [silybin B] | AUC(0-t), free silybin [1, 7]: 1808 ± 226 ng ⋅ h/ml; Cmax, free silybin [1, 7]: 915.2 ± 151 ng/mL; AUC(0-t), free silybin ([1]; without baicalein): 1195 ± 302 ng ⋅ h/ml; Cmax, free silybin ([1]; without baicalein): 413 ± 69 ng/mL; Cmax, free silybin ([1]; without baicalein, listed as SBB): 412.7 ± 69.3 ng/mL
